The values that follow come from ChEMBL document CHEMBL1201862, “PubChem BioAssay data set” (2004).

Among the test systems are DMS-273; DLD-1; DMS-114; XF498; LXFL 529; HOP-18; RXF 631; KM-20L2; M19-MEL.
Holding throughout (test): inhibition of tumour cell growth, NCI panel, 48 h

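All cell lines were grown in 96-well plates and treated with compound for 48 hours. GI50: concentration for 50% inhibition of growth.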 Active and inactive are the calls of the source. No stated cut-off is given here; in the data, active = GI50 up to about 1.1 µM and inactive = higher.

Consider `Cc1cccc(C(=O)c2cccc3ccccc23)c1C(=O)O`, for which the GI50 with DMS-273 is > 100 µM (inactive); with DLD-1 it was > 100 µM (inactive); in the assay on DMS-114, 3.24 µM (inactive); in the assay with XF498, > 100 µM (inactive); in the assay with LXFL 529, > 100 µM (inactive); with HOP-18, 50.9 µM (inactive). In addition, the GI50 in the assay with RXF 631, in the assay with KM-20L2 and with M19-MEL was > 100 µM (inactive) each time.
Take `O=C1/C(=C/c2ccccc2)CN(C(=O)CCN2CCCC2)C/C1=C\c1ccccc1`: the GI50 in the assay with DMS-273 was 1.75 µM (inactive); in the assay with DLD-1 it was 1.46 µM (inactive); in the assay on DMS-114 it was 2.07 µM (inactive); in the assay on XF498, 5.09 µM (inactive); in the assay with LXFL 529, 1.72 µM (inactive); in the assay with HOP-18, 3.35 µM (inactive). For the same molecule, the GI50 in the assay with RXF 631 was 4.08 µM (inactive); in the assay on KM-20L2, 1.62 µM (inactive); in the assay with M19-MEL, 1.84 µM (inactive).
Regarding `C#CCC1(C(=O)OCC)C(=O)c2ccccc2N(C)C1=O` (configuration not stated), the GI50 is > 100 µM (inactive) in the assay on DMS-273; > 100 µM (inactive) with DLD-1; > 100 µM (inactive) with DMS-114; 26.7 µM (inactive) with XF498; > 100 µM (inactive) with LXFL 529; > 100 µM (inactive) in the assay on HOP-18. Besides, the GI50 with RXF 631, with KM-20L2 and in the assay on M19-MEL was > 100 µM (inactive) throughout.
Take `Nc1nc(N)c2nc(-c3ccco3)cnc2n1`: the GI50 is > 100 µM (inactive) in the assay on DLD-1; 38.8 µM (inactive) in the assay with DMS-114; > 100 µM (inactive) in the assay on XF498; 64.1 µM (inactive) with LXFL 529; 27.6 µM (inactive) with HOP-18; 36 µM (inactive) with RXF 631. In addition, the values for the GI50 in the assay with KM-20L2 and with M19-MEL were 69.2 µM (inactive) and > 100 µM (inactive), respectively.
Consider `COc1cccc(/C=N/[N-]C(=S)Nc2ccccc2)c1[O-].O.[Zn+2]`, for which the GI50 is 29 µM (inactive) with DLD-1; 15.4 µM (inactive) with DMS-114; 23.2 µM (inactive) in the assay with XF498; 68.5 µM (inactive) with LXFL 529; > 100 µM (inactive) in the assay on HOP-18; 40.3 µM (inactive) in the assay with KM-20L2. Moreover, in the assay on M19-MEL, the GI50 was 60 µM (inactive).
For `C=CCc1cc(OC)c2c(c1)C(OC(C)=O)CC(c1ccc(OC)c(OC)c1)O2` (configuration not stated), the GI50 with DMS-273, with DLD-1, with DMS-114, in the assay on LXFL 529, with KM-20L2 and with M19-MEL was > 100 µM (inactive) in each case.
With `Nc1nc(SCc2ccccc2Cl)c2[nH]cnc2n1`, the GI50 was 41 µM (inactive) in the assay with DMS-273; 69 µM (inactive) in the assay on DLD-1; 40.8 µM (inactive) with DMS-114; 62.1 µM (inactive) in the assay with LXFL 529; > 100 µM (inactive) in the assay on KM-20L2; > 100 µM (inactive) with M19-MEL.
For `COc1ccc(/C=C/c2cc(OC)c(OCc3ccccc3)c(OC)c2)cc1`, the GI50 is 71.6 µM (inactive) with DMS-273; 45.6 µM (inactive) with DLD-1; 68.4 µM (inactive) with DMS-114; > 100 µM (inactive) in the assay on XF498; > 100 µM (inactive) with LXFL 529; 48.3 µM (inactive) with RXF 631. Moreover, the GI50 in the assay with KM-20L2 and in the assay on M19-MEL was > 100 µM (inactive) in each case.
`Nc1nc(=O)[nH]c2c1cnn2C1CCCCO1` (configuration not stated): the GI50 in the assay on DMS-273 is > 100 µM (inactive); in the assay on DLD-1, 62.7 µM (inactive); in the assay on XF498 it was > 100 µM (inactive); in the assay with LXFL 529, > 100 µM (inactive); in the assay on HOP-18 it was > 100 µM (inactive); in the assay with RXF 631 it was > 100 µM (inactive). For the same molecule, the GI50 with KM-20L2 is > 100 µM (inactive).
With `C=C(N=[N+]=[N-])c1cn(C2CC(O)C(CO)O2)c(=O)[nH]c1=O` (configuration not stated), the GI50 with DMS-273, in the assay on DLD-1, in the assay with DMS-114, with XF498, in the assay on LXFL 529 and in the assay with HOP-18 was > 100 µM (inactive) each time. Moreover, the GI50 in the assay on KM-20L2 and with M19-MEL was > 100 µM (inactive) throughout.
For `O=c1c2cc3c(=O)n(CCc4ccccc4CO)c(=O)c3cc2c(=O)n1CCc1ccccc1CO`, the GI50 with DMS-273, with DLD-1, with DMS-114, with XF498, in the assay with LXFL 529 and with M19-MEL was > 100 µM (inactive) each time.
`Nc1ncnc2c1ncn2C1CCC(CO)O1` (configuration not stated): the GI50 with DMS-273 is > 100 µM (inactive); in the assay with DLD-1, > 100 µM (inactive); in the assay on DMS-114, > 55.6 µM (inactive); with XF498 it was > 90.8 µM (inactive); in the assay on HOP-18, > 100 µM (inactive); with KM-20L2 it was > 100 µM (inactive). Besides, the GI50 in the assay on M19-MEL was > 100 µM (inactive).
For the molecule `CC12C(=CC(=O)CC1SCCS(=O)(=O)O)C(C#N)=C(N)N2c1ccc(Cl)c(Cl)c1` (configuration not stated), the GI50 in the assay on DMS-273, in the assay on DLD-1, in the assay on DMS-114, in the assay with LXFL 529, in the assay on KM-20L2 and in the assay on M19-MEL was > 100 µM (inactive) each time.
As to `O=C(O)[C@@H](NS(=O)(=O)c1ccc(F)cc1)c1ccccc1`, the GI50 in the assay with DMS-273, in the assay on DLD-1, with DMS-114, in the assay with XF498, with LXFL 529 and with HOP-18 was > 100 µM (inactive) each time. In addition, the GI50 with KM-20L2 and with M19-MEL was > 100 µM (inactive) each time.
Consider `COC(=O)c1ccccc1NC(=O)C(=O)CC(=O)CC(c1ccccc1)c1c(O)c2ccccc2oc1=O` (configuration not stated), for which the GI50 with DLD-1, in the assay with DMS-114, in the assay on RXF 631, in the assay with KM-20L2 and with M19-MEL was > 100 µM (inactive) in each case.
Regarding `C/C(CCn1[nH]c(=O)ccc1=O)=N\NC(=O)C(=O)NN`, the GI50 in the assay on DMS-273, in the assay with DLD-1, in the assay on XF498, with LXFL 529, in the assay on HOP-18 and with RXF 631 was > 100 µM (inactive) each time. Further, the GI50 with KM-20L2 and in the assay with M19-MEL was > 100 µM (inactive) each time.
As for `C=C=CC(NC(=O)c1ccccc1)(C(=O)O)C(F)(F)F` (configuration not stated), the GI50 in the assay with DMS-273, in the assay with DLD-1, with DMS-114, in the assay with XF498, with LXFL 529 and with HOP-18 was > 100 µM (inactive) throughout. Besides, the GI50 in the assay on RXF 631 is > 100 µM (inactive).
For `COC(=O)[C@H]1N[C@@H](C(=O)OC)C23CCC[C@H]2CC[C@]1(C(OC)OC)C3`, the GI50 with DMS-273, with DLD-1, with DMS-114, in the assay with XF498, with LXFL 529 and in the assay on HOP-18 was > 100 µM (inactive) throughout. For the same molecule, the GI50 with KM-20L2 and with M19-MEL was > 100 µM (inactive) each time.
Consider `COc1cccc2c1C(=O)c1c(O)c3c(c(O)c1C2=O)CC(O)(C(O)CO)CC3OC1CC(N2CCOCC2)C(O)C(C)O1` (configuration not stated), for which the GI50 was < 0.001 µM (active) with DMS-273; < 0.001 µM (active) in the assay with DLD-1; 0.018 µM (active) in the assay with DMS-114; 0.0168 µM (active) with XF498; 0.0124 µM (active) with LXFL 529; < 0.001 µM (active) in the assay with HOP-18. Besides, the figures for the GI50 in the assay on RXF 631, in the assay on KM-20L2 and in the assay on M19-MEL were < 0.001 µM (active), 0.0267 µM (active) and 0.0146 µM (active), respectively.
As for `COc1ccc2[nH]c3c(C)c4cc[n+](C)cc4c(C)c3c2c1`, the GI50 is 0.838 µM (active) with DMS-273; 1.06 µM (active) in the assay with DLD-1; 0.219 µM (active) in the assay on DMS-114; 3.95 µM (inactive) in the assay with HOP-18; 3.3 µM (inactive) in the assay with KM-20L2; 0.661 µM (active) in the assay with M19-MEL.
